Values of other authors as cited in patent US20230321091A1, “SUBSTITUTED PYRIDAZINONES FOR USE IN THE TREATMENT OF NEUROMUSCULAR DISEASES” (Edgewise Therapeutics, Inc., priority 2020, published 2023).

System: embryos from zebrafish model of DMD

## Cc1ccc(S(=O)(=O)NCc2ccccc2)cc1 [BTS, N-benzyl-p-tolyl-sulfonamide]
  protection of muscles from pathological muscle derangement: protect muscles from pathological muscle derangement
